Measured values: US11267826B2, “Penicillin-binding protein inhibitors” (priority 2017, dated 2022)

Assays:
S. aureus ATCC 29213 = experiment: Broth microdilution MIC assay, S. aureus; type: cell-based; settings: Staphylococcus aureus, ATCC29213; broth microdilution, 16-20 hours at 37° C.; read-out: S. aureus 29213 MIC
Protocol: (§1) To determine the ability of test compounds to potentiate the inhibition of the growth of bacterial strains, classic cell based broth microdilution MIC assays were employed. MIC assays are performed according to CLSI methods except where otherwise noted (CLSI, 2011 and CLSI, 2009). The reference strain S. aureus ATCC 29213 and the hyper-permeable E. coli 901C were used to determine the ability of the PBP compounds to inhibit bacterial growth. Briefly, cryo-preserved bacterial cultures of clinical strains are streaked for isolation on appropriate agar medium, in this case Mueller Hinton II agar. Following incubation to allow formation of colonies these plates are sealed with parafilm and stored refrigerated for up to two weeks. For preparation of assay inocula and to ensure low variability, at least 5 colonies are picked from the agar plates with an inoculating loop and aseptically transferred to a culture tube containing 3 mL of Mueller-Hinton Broth (supplemented with divalent cations to required levels based on Manufacturers' certification). The broth culture is grown for 3-5 hours at 37° C. with shaking at 200 rpm. Meanwhile, 2-fold serial dilutions of test compounds are conducted in a 96 well plate with a final volume of 75 μL per well at 2-fold the final desired concentration. After the dilution plates are set up the growing cultures are then diluted in a cuvette containing MH II broth and the optical density is measured at 600 nm. Inocula are diluted such that 75 μL of this culture in Mueller-Hinton Broth results in a starting bacterial concentration of 5×10^5 CFU/mL when added to the dilution plates. The plates are incubated 16-20 hours at 37° C. The MIC is read visually as the lowest concentration well with no bacterial growth.

[1] = system: hyper-permeable E. coli 901C; experiment: Broth microdilution MIC assay, hyper-permeable E. coli; type: cell-based; settings: Escherichia coli, read-out: E. coli 901C MIC
Protocol: as §1

| Compound | MIC (S. aureus ATCC 29213) | MIC [1] |
| --- | --- | --- |
| O=C(N[C@H]1Cc2cccc(C(=O)O)c2OB1O)/C(=N\O)c1cscn1 [Example 90, (R,Z)-2-hydroxy-3-(2-(hydroxyimino)-2-(thiazol-4-yl)acetamido)-3,4-dihydro-2H-benzo[e][1,2]oxaborinine-8-carboxylic Acid] | < 64 µg/mL | 64 to 128 µg/mL |
| Nc1nc(/C(=N/O)C(=O)N[C@H]2Cc3ccc(CCC(=O)O)c(C(=O)O)c3OB2O)cs1 [Example 28, (R,Z)-3-(2-(2-aminothiazol-4-yl)-2-(hydroxyimino)acetamido)-7-(2-carboxyethyl)-2-hydroxy-3,4-dihydro-2H-benzo[e][1,2]oxaborinine-8-carboxylic Acid] | > 128 µg/mL | > 128 µg/mL |
| COc1cc2c(c(C(=O)O)c1)OB(O)[C@@H](NC(=O)/C(=N\OC(C)(C)C(N)=O)c1csc(N)n1)C2 [Example 81, (R,Z)-3-(2-(((1-amino-2-methyl-1-oxopropan-2-yl)oxy)imino)-2-(2-aminothiazol-4-yl)acetamido)-2-hydroxy-6-methoxy-3,4-dihydro-2H-benzo[e][1,2]oxaborinine-8-carboxylic Acid] | > 128 µg/mL | < 64 µg/mL |
| Nc1nc(/C(=N/O)C(=O)N[C@H]2Cc3ccc(CN4CCCC4)c(C(=O)O)c3OB2O)cs1 [Example 25, (R,Z)-3-(2-(2-aminothiazol-4-yl)-2-(hydroxyimino)acetamido)-2-hydroxy-7-(pyrrolidin-1-ylmethyl)-3,4-dihydro-2H-benzo[e][1,2]oxaborinine-8-carboxylic Acid] | < 64 µg/mL | > 128 µg/mL |
| Nc1cc(/C(=N/O)C(=O)N[C@H]2Cc3cccc(C(=O)O)c3OB2O)ccn1 [Example 14, (R,Z)-3-(2-(2-aminopyridin-4-yl)-2-(hydroxyimino)acetamido)-2-hydroxy-3,4-dihydro-2H-benzo[e][1,2]oxaborinine-8-carboxylic Acid] | < 64 µg/mL | > 128 µg/mL |
| Nc1nc(/C(=N/OC2CNC2)C(=O)N[C@H]2Cc3cccc(C(=O)O)c3OB2O)cs1 [Example 53, (R,Z)-3-(2-(2-aminothiazol-4-yl)-2-((azetidin-3-yloxy)imino)acetamido)-2-hydroxy-3,4-dihydro-2H-benzo[e][1,2]oxaborinine-8-carboxylic Acid] | > 128 µg/mL | 64 to 128 µg/mL |
| NCCN(CCN)c1nc(/C(=N/O)C(=O)N[C@H]2Cc3cccc(C(=O)O)c3OB2O)cs1 [Example 94, (R,Z)-3-(2-(2-(bis(2-aminoethyl)amino)thiazol-4-yl)-2-(hydroxyimino)acetamido)-2-hydroxy-3,4-dihydro-2H-benzo[e][1,2]oxaborinine-8-carboxylic Acid] | < 64 µg/mL | > 128 µg/mL |
| NCCn1nnc(C(=NO)C(=O)N[C@H]2Cc3cccc(C(=O)O)c3OB2O)n1 [Example 111, (R)-3-(2-(2-(2-aminoethyl)-2H-tetrazol-5-yl)-2-(hydroxyimino)acetamido)-2-hydroxy-3,4-dihydro-2H-benzo[e][1,2]oxaborinine-8-carboxylic Acid] | > 128 µg/mL | > 128 µg/mL |
| CO/N=C(\C(=O)N[C@H]1Cc2cccc(C(=O)O)c2OB1O)c1cccnc1 [Example 4, (R,Z)-2-hydroxy-3-(2-(methoxyimino)-2-(pyridin-3-yl)acetamido)-3,4-dihydro-2H-benzo[e][1,2]oxaborinine-8-carboxylic Acid] | 64 to 128 µg/mL | > 128 µg/mL |
| O=C(O)CNc1nc(/C(=N/O)C(=O)N[C@H]2Cc3cccc(C(=O)O)c3OB2O)cs1 [Example 108, (R,Z)-3-(2-(2-((carboxymethyl)amino)thiazol-4-yl)-2-(hydroxyimino)acetamido)-2-hydroxy-3,4-dihydro-2H-benzo[e][1,2]oxaborinine-8-carboxylic Acid] | > 128 µg/mL | > 128 µg/mL |
| O=C(N[C@H]1Cc2cccc(C(=O)O)c2OB1O)/C(=N/O)c1nnn[nH]1 [Example 103, (R,E)-2-hydroxy-3-(2-(hydroxyimino)-2-(1H-tetrazol-5-yl)acetamido)-3,4-dihydro-2H-benzo[e][1,2]oxaborinine-8-carboxylic Acid] | > 128 µg/mL | > 128 µg/mL |
| Nc1cccc(/C(=N/O)C(=O)N[C@H]2Cc3cccc(C(=O)O)c3OB2O)n1 [Example 16, (R,Z)-3-(2-(6-aminopyridin-2-yl)-2-(hydroxyimino)acetamido)-2-hydroxy-3,4-dihydro-2H-benzo[e][1,2]oxaborinine-8-carboxylic Acid] | < 64 µg/mL | 64 to 128 µg/mL |
| Nc1nc(/C(=N/O)C(=O)N[C@H]2Cc3cc(OC(F)(F)F)cc(C(=O)O)c3OB2O)cs1 [Example 45, (R,Z)-3-(2-(2-aminothiazol-4-yl)-2-(hydroxyimino)acetamido)-2-hydroxy-6-(trifluoromethoxy)-3,4-dihydro-2H-benzo[e][1,2]oxaborinine-8-carboxylic Acid] | < 64 µg/mL | < 64 µg/mL |
| Nc1nc(/C(=N/O)C(=O)N[C@H]2Cc3cc(F)cc(C(=O)O)c3OB2O)cs1 [Example 32, (R,Z)-3-(2-(2-aminothiazol-4-yl)-2-(hydroxyimino)acetamido)-6-fluoro-2-hydroxy-3,4-dihydro-2H-benzo[e][1,2]oxaborinine-8-carboxylic Acid] | < 64 µg/mL | < 64 µg/mL |
| COc1ccc(CSc2nc(/C(=N/O)C(=O)N[C@H]3Cc4cccc(C(=O)O)c4OB3O)cs2)cc1 [Example 92, (R,Z)-2-hydroxy-3-(2-(hydroxyimino)-2-(2-((4-methoxybenzyl)thio)thiazol-4-yl)acetamido)-3,4-dihydro-2H-benzo[e][1,2]oxaborinine-8-carboxylic Acid] | < 64 µg/mL | > 128 µg/mL |
| Nc1nc(/C(=N/OCCO)C(=O)N[C@H]2Cc3cccc(C(=O)O)c3OB2O)cs1 [Example 13, (R,Z)-3-(2-(2-aminothiazol-4-yl)-2-((2-hydroxyethoxy)imino)acetamido)-2-hydroxy-3,4-dihydro-2H-benzo[e][1,2]oxaborinine-8-carboxylic Acid] | 64 to 128 µg/mL | > 128 µg/mL |
| O=C(N[C@H]1Cc2cccc(C(=O)O)c2OB1O)C(=NO)c1csc(-n2ccnc2)n1 [Example 93, (R)-3-(2-(2-(1H-imidazol-1-yl)thiazol-4-yl)-2-(hydroxyimino)acetamido)-2-hydroxy-3,4-dihydro-2H-benzo[e][1,2]oxaborinine-8-carboxylic Acid] | < 64 µg/mL | > 128 µg/mL |
| CO/N=C(/C(=O)N[C@H]1Cc2cccc(C(=O)O)c2OB1O)c1cccnc1 [Example 3, (R,E)-2-hydroxy-3-(2-(methoxyimino)-2-(pyridin-3-yl)acetamido)-3,4-dihydro-2H-benzo[e][1,2]oxaborinine-8-carboxylic Acid] | > 128 µg/mL | > 128 µg/mL |
| O=C(N[C@H]1Cc2cccc(C(=O)O)c2OB1O)/C(=N\O)c1csc(S)n1 [Example 91, (R,Z)-2-hydroxy-3-(2-(hydroxyimino)-2-(2-mercaptothiazol-4-yl)acetamido)-3,4-dihydro-2H-benzo[e][1,2]oxaborinine-8-carboxylic Acid] | < 64 µg/mL | > 128 µg/mL |
| NCCON=C(C(=O)N[C@H]1Cc2cccc(C(=O)O)c2OB1O)c1nnn[nH]1 [Example 110, (R)-3-(2-((2-aminoethoxy)imino)-2-(1H-tetrazol-5-yl)acetamido)-2-hydroxy-3,4-dihydro-2H-benzo[e][1,2]oxaborinine-8-carboxylic Acid] | > 128 µg/mL | > 128 µg/mL |
| Nc1nc(/C(=N/O)C(=O)N[C@H]2Cc3cc(CN4CCCC4)cc(C(=O)O)c3OB2O)cs1 [Example 33, (R,Z)-3-(2-(2-aminothiazol-4-yl)-2-(hydroxyimino)acetamido)-2-hydroxy-6-(pyrrolidin-1-ylmethyl)-3,4-dihydro-2H-benzo[e][1,2]oxaborinine-8-carboxylic Acid] | < 64 µg/mL | > 128 µg/mL |
| N=C(N)Nc1nc(/C(=N/O)C(=O)N[C@H]2Cc3cccc(C(=O)O)c3OB2O)cs1 [Example 11, (R,Z)-3-(2-(2-guanidinothiazol-4-yl)-2-(hydroxyimino)acetamido)-2-hydroxy-3,4-dihydro-2H-benzo[e][1,2]oxaborinine-8-carboxylic Acid] | < 64 µg/mL | > 128 µg/mL |
| NCCNc1nc(/C(=N/O)C(=O)N[C@H]2Cc3cccc(C(=O)O)c3OB2O)cs1 [Example 10, (R,Z)-3-(2-(2-((2-aminoethyl)amino)thiazol-4-yl)-2-(hydroxyimino)acetamido)-2-hydroxy-3,4-dihydro-2H-benzo[e][1,2]oxaborinine-8-carboxylic Acid] | 64 to 128 µg/mL | > 128 µg/mL |
| Nc1ncc(C(=NO)C(=O)N[C@H]2Cc3cccc(C(=O)O)c3OB2O)s1 (stereo in doubt) [Example 95, (R,Z)-3-(2-(2-aminothiazol-5-yl)-2-(hydroxyimino)acetamido)-2-hydroxy-3,4-dihydro-2H-benzo[e][1,2]oxaborinine-8-carboxylic Acid] | < 64 µg/mL | > 128 µg/mL |
| Nc1nc(/C(=N/O)C(=O)N[C@@H]2Cc3cccc(C(=O)O)c3OB2O)cs1 [Example 9, (S,Z)-3-(2-(2-aminothiazol-4-yl)-2-(hydroxyimino)acetamido)-2-hydroxy3,4-dihydro-2H-benzo[e][1,2]oxaborinine-8-carboxylic Acid] | > 128 µg/mL | > 128 µg/mL |
